# Results reported in the kinase profiling compilation of Christmann-Franck et al. (2016).
# Assays:
# Assay in all cases: radiometric filter-binding kinase assay
# CLK2 (human) = CLK2 (human) (UniProt P49760)
# DYRK3 (human) = DYRK3 (human) (UniProt O43781)
# HIPK1 (human) = HIPK1 (human) (UniProt Q86Z02)
# CaMK1 (human) = CaMK1 (human) (UniProt Q14012)
# JAK2 JH1 JH2 (human) = JAK2 JH1 JH2 (human) (UniProt O60674)
# FGFR1 (human) = FGFR1 (human) (UniProt P11362)
# EPHB2 (human) = EPHB2 (human) (UniProt P29323)
# MINK1 (human) = MINK1 (human) (UniProt Q8N4C8)
# IGF1R (human) = IGF1R (human) (UniProt P08069)
# GCK (human) = GCK (human) (UniProt Q12851)
# GCK (human), sequence (Q12851 whole entry, looked up): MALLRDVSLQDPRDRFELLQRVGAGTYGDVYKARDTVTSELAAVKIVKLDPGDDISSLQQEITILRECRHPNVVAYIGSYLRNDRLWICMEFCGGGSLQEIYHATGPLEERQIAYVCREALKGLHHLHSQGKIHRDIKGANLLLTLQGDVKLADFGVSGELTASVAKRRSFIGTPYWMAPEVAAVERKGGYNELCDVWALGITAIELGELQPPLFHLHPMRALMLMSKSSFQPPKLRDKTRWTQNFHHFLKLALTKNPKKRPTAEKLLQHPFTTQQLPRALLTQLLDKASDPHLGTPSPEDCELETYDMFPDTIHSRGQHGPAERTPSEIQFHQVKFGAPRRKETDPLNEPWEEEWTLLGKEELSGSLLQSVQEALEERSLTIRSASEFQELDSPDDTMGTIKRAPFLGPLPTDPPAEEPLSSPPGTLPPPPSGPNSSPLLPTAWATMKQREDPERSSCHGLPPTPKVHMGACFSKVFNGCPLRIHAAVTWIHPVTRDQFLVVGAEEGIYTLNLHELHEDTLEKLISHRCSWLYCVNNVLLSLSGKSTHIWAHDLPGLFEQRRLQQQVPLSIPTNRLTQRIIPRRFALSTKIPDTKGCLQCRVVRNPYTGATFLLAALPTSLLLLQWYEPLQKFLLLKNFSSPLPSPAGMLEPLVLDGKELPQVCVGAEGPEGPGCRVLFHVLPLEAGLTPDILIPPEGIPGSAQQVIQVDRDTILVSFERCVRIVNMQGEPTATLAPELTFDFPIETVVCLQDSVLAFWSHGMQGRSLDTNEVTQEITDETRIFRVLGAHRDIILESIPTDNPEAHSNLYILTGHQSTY
# DAPK1 (human) = DAPK1 (human) (UniProt P53355)
# MAPK11 (human) = MAPK11 (human) (UniProt Q15759)
# MAPK13 (human) = MAPK13 (human) (UniProt O15264); conditions: compound 1.0 µM
# LCK (mouse) = conditions: compound 10.0 µM; accession and sequence are those of the human protein
# YES1 (human) = YES1 (human) (UniProt P07947)
# CSNK2A1 (human) = CSNK2A1 (human) (UniProt P68400)
# MARK3 (human) = MARK3 (human) (UniProt P27448)
# ROCK2 (rat) = conditions: accession and sequence are those of the human protein
# CHEK1 (human) = CHEK1 (human) (UniProt O14757)
# AURKB (human) = AURKB (human) (UniProt Q96GD4)
# PHKG1 (human) = PHKG1 (human) (UniProt Q16816)
# [1] = system: SGK1 (human), O00141 [S422D]
# SRPK1 (human) = SRPK1 (human) (UniProt Q96SB4)
# BRSK2 (human) = BRSK2 (human) (UniProt Q8IWQ3)
# MAPK8 (human) = MAPK8 (human) (UniProt P45983)
# TAOK1 (human) = TAOK1 (human) (UniProt Q7L7X3)
# TAOK1 (human), sequence (Q7L7X3 whole entry, looked up): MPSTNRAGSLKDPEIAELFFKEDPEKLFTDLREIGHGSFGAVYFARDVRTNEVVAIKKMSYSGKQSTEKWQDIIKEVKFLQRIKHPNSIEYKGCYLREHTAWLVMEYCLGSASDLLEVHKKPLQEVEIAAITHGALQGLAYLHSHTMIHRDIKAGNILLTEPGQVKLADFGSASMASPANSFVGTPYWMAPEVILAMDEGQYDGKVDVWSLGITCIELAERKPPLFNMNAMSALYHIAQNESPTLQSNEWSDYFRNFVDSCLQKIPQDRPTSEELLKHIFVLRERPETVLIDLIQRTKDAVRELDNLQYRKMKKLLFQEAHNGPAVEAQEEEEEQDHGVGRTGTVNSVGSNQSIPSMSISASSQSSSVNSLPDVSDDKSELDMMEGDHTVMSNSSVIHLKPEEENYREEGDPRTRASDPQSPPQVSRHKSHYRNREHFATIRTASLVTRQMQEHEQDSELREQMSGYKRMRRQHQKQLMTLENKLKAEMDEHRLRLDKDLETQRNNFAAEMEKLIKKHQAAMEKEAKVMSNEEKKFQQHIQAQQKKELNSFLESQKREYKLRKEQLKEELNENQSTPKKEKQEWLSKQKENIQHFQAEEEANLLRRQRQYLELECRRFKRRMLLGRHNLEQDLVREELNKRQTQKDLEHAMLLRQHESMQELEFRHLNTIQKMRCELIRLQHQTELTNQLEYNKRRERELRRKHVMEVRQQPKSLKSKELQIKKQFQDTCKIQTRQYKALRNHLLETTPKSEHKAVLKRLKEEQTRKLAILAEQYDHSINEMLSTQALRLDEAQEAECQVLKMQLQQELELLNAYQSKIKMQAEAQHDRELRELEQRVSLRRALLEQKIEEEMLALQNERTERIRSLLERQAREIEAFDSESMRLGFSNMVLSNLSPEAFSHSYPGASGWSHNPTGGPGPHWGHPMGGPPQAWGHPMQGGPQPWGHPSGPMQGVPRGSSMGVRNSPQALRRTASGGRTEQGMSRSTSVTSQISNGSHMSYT
# MAPKAPK5 (human) = MAPKAPK5 (human) (UniProt Q8IW41)
# MKNK1 (human) = MKNK1 (human) (UniProt Q9BUB5)
# MKNK1 (human), sequence (Q9BUB5 whole entry, looked up): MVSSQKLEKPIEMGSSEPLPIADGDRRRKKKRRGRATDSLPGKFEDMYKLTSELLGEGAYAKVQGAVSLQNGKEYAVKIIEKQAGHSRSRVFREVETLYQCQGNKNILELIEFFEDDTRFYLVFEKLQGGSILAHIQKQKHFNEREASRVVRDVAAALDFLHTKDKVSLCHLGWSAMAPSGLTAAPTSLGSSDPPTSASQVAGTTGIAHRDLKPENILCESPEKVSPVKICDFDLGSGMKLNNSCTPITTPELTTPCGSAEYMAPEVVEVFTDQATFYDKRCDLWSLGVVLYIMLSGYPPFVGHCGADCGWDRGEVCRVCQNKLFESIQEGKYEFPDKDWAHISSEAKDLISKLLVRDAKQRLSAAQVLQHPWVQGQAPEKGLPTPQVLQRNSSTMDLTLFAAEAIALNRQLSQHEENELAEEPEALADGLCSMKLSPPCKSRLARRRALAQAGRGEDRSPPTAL
# TBK1 (human) = TBK1 (human) (UniProt Q9UHD2); conditions: compound 10.0 µM
# [2] = system: PAK2 (human), Q13177 [T402E]
# PAK2 (human), Q13177 [T402E], sequence (Q13177 whole entry T402E, looked up): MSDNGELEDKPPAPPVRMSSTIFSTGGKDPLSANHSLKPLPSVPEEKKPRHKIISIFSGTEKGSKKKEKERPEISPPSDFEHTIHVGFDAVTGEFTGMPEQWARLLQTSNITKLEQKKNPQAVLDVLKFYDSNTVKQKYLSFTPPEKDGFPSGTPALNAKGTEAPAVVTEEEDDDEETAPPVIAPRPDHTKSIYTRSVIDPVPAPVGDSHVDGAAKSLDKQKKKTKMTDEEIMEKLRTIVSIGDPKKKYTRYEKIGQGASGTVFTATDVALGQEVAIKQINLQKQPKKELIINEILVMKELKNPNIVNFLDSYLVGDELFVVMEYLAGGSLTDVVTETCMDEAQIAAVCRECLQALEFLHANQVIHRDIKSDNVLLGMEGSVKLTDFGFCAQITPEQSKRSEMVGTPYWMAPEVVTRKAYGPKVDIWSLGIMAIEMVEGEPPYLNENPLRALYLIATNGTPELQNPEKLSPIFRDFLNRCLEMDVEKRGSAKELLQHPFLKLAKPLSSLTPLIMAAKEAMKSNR
# MAPK10 (human) = MAPK10 (human) (UniProt P53779)
# MAPK10 (human), sequence (P53779 whole entry, looked up): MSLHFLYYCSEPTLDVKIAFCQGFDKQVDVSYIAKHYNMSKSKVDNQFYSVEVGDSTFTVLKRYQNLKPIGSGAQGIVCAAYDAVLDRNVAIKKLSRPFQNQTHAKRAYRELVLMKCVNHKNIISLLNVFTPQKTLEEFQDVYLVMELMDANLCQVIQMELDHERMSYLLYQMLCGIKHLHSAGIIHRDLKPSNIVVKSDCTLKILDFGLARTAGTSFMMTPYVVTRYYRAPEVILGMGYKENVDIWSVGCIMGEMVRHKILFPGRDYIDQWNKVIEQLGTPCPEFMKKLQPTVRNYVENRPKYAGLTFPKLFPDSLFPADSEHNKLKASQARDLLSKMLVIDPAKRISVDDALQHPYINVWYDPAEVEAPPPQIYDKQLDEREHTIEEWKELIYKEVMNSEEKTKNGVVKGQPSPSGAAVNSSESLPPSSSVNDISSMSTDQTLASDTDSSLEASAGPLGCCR
# DYRK1A (human) = DYRK1A (human) (UniProt Q13627)
# PIM3 (human) = PIM3 (human) (UniProt Q86V86)
# CAMKK2 (human) = CAMKK2 (human) (UniProt Q96RR4)
# CAMKK2 (human), sequence (Q96RR4 whole entry, looked up): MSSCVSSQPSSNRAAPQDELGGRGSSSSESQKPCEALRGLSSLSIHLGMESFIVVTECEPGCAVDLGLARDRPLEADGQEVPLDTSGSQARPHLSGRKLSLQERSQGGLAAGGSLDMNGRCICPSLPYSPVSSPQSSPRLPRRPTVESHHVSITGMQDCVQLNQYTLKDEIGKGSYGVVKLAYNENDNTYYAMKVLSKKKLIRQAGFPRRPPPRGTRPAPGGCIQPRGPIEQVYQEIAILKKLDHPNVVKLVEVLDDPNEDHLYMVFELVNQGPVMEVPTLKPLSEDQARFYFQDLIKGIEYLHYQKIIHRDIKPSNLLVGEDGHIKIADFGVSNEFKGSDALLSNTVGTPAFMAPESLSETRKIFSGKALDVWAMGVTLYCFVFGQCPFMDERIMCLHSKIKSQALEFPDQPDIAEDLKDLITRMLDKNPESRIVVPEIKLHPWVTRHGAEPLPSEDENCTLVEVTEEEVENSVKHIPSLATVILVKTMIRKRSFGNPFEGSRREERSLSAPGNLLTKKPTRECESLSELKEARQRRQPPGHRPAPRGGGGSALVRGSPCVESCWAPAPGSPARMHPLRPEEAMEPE
# HIPK2 (human) = HIPK2 (human) (UniProt Q9H2X6)
# STK3 (human) = STK3 (human) (UniProt Q13188)
# JAK2 JH1 JH2 (human), sequence (O60674 whole entry, looked up): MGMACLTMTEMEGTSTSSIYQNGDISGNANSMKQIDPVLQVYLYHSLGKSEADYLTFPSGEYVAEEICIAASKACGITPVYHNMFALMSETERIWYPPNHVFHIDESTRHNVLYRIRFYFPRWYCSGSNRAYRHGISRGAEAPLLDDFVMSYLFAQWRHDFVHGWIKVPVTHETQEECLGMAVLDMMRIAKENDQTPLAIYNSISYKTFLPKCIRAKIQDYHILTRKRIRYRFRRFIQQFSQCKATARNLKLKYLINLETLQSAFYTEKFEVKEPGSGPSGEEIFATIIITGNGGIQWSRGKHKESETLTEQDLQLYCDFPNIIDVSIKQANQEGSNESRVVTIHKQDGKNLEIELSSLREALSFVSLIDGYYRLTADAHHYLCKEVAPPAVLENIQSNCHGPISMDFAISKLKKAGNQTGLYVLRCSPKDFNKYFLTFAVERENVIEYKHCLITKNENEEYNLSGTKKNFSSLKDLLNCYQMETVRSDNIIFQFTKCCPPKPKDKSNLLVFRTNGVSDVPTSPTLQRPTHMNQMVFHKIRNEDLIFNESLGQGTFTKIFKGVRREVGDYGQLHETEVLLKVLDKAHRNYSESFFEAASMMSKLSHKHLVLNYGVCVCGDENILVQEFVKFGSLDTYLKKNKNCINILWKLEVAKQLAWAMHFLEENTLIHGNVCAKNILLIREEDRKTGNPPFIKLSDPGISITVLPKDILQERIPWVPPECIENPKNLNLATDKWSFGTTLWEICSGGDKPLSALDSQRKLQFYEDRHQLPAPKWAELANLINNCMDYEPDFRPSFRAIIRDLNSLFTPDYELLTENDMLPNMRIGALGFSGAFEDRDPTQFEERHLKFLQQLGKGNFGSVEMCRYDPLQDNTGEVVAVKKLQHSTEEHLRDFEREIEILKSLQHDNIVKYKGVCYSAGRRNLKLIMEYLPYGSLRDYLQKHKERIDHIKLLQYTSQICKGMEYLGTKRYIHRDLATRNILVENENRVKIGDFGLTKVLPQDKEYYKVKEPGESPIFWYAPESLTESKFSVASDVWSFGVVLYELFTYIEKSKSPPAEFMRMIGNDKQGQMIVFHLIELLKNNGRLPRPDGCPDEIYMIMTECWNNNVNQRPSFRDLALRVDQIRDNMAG
smiles,measurement,setting,value
COc1cc(C(=O)N2CCOCC2)c(F)cc1Nc1ncc(C(F)(F)F)c(NC2CC2)n1,residual activity,CLK2 (human); compound 1.0 µM,36%
same,residual activity,CLK2 (human); compound 10.0 µM,5%
same,residual activity,DYRK3 (human); compound 1.0 µM,88%
same,residual activity,DYRK3 (human); compound 10.0 µM,51%
same,residual activity,HIPK1 (human); compound 1.0 µM,92%
same,residual activity,HIPK1 (human); compound 10.0 µM,49%
same,residual activity,CaMK1 (human); compound 1.0 µM,92%
same,residual activity,CaMK1 (human); compound 10.0 µM,51%
same,residual activity,JAK2 JH1 JH2 (human); compound 1.0 µM,79%
same,residual activity,JAK2 JH1 JH2 (human); compound 10.0 µM,52%
same,residual activity,FGFR1 (human); compound 1.0 µM,97%
same,residual activity,FGFR1 (human); compound 10.0 µM,104%
same,residual activity,EPHB2 (human); compound 1.0 µM,92%
same,residual activity,EPHB2 (human); compound 10.0 µM,97%
same,residual activity,MINK1 (human); compound 1.0 µM,124%
same,residual activity,MINK1 (human); compound 10.0 µM,109%
same,residual activity,IGF1R (human); compound 1.0 µM,35%
same,residual activity,IGF1R (human); compound 10.0 µM,8%
same,residual activity,GCK (human); compound 1.0 µM,73%
same,residual activity,GCK (human); compound 10.0 µM,25%
same,residual activity,DAPK1 (human); compound 1.0 µM,53%
same,residual activity,DAPK1 (human); compound 10.0 µM,11%
same,residual activity,MAPK11 (human); compound 1.0 µM,98%
same,residual activity,MAPK11 (human); compound 10.0 µM,101%
same,residual activity,MAPK13 (human),97%
same,residual activity,LCK (mouse),102%
same,residual activity,YES1 (human); compound 1.0 µM,89%
same,residual activity,YES1 (human); compound 10.0 µM,110%
same,residual activity,CSNK2A1 (human); compound 1.0 µM,96%
same,residual activity,CSNK2A1 (human); compound 10.0 µM,74%
same,residual activity,MARK3 (human); compound 1.0 µM,91%
same,residual activity,MARK3 (human); compound 10.0 µM,61%
same,residual activity,ROCK2 (rat); compound 1.0 µM,95%
same,residual activity,ROCK2 (rat); compound 10.0 µM,78%
same,residual activity,CHEK1 (human); compound 1.0 µM,58%
same,residual activity,CHEK1 (human); compound 10.0 µM,25%
same,residual activity,AURKB (human); compound 1.0 µM,68%
same,residual activity,AURKB (human); compound 10.0 µM,24%
same,residual activity,PHKG1 (human); compound 1.0 µM,45%
same,residual activity,PHKG1 (human); compound 10.0 µM,8%
same,residual activity,[1]; compound 1.0 µM,88%
same,residual activity,[1]; compound 10.0 µM,70%
same,residual activity,SRPK1 (human); compound 1.0 µM,84%
same,residual activity,SRPK1 (human); compound 10.0 µM,69%
same,residual activity,BRSK2 (human); compound 1.0 µM,88%
same,residual activity,BRSK2 (human); compound 10.0 µM,51%
same,residual activity,MAPK8 (human); compound 1.0 µM,83%
same,residual activity,MAPK8 (human); compound 10.0 µM,47%
same,residual activity,TAOK1 (human); compound 1.0 µM,99%
same,residual activity,TAOK1 (human); compound 10.0 µM,80%
same,residual activity,MAPKAPK5 (human); compound 1.0 µM,77%
same,residual activity,MAPKAPK5 (human); compound 10.0 µM,49%
same,residual activity,MKNK1 (human); compound 1.0 µM,74%
same,residual activity,MKNK1 (human); compound 10.0 µM,26%
same,residual activity,TBK1 (human),26%
same,residual activity,[2]; compound 1.0 µM,89%
same,residual activity,[2]; compound 10.0 µM,88%
same,residual activity,MAPK10 (human); compound 1.0 µM,80%
same,residual activity,MAPK10 (human); compound 10.0 µM,48%
same,residual activity,DYRK1A (human); compound 1.0 µM,78%
same,residual activity,DYRK1A (human); compound 10.0 µM,38%
same,residual activity,PIM3 (human); compound 1.0 µM,101%
same,residual activity,PIM3 (human); compound 10.0 µM,78%
same,residual activity,CAMKK2 (human); compound 1.0 µM,40%
same,residual activity,CAMKK2 (human); compound 10.0 µM,10%
same,residual activity,HIPK2 (human); compound 1.0 µM,70%
same,residual activity,HIPK2 (human); compound 10.0 µM,28%
same,residual activity,STK3 (human); compound 1.0 µM,111%
same,residual activity,STK3 (human); compound 10.0 µM,92%
